Results reported in US20080045495A1, “Treatment of Patients with Cystic Disease by Alteration of Fibrocystin Proteolysis” (BOARD OF REGENTS, THE UNIVERSITY OF TEXAS SYSTEM, priority 2006, published 2008).

Tests used:
[1] = test system: fibrocystin cleavage in mIMCD3/FC cells; assay: Immunoblot (anti-V5) of fibrocystin proteolytic fragments in mIMCD3/FC cells; assay type: cell-based, human; details: pretreatment with 5 mM caffeine, lysates after 24 hours, FIG. 4A
Procedure: Cell Culture, Transfection and Generation of Stable Cell Lines—mIMCD-3 cells were plated at a density of 500,000 cells/100 mm dish, and 24 hours and 48 hours later the cells were transfected with 2 μg of pFC-V5 using Effectene (Qiagen, Valencia, Calif.). Cells were incubated for an additional 72 hours and lysed in 100 μl buffer containing Tris-buffered saline, 0.5% Triton X-100, protease inhibitor cocktail (Hoffmann-La Roche Inc., Indianapolis, Ind.). Twenty μl of the lysates were analyzed by SDS-PAGE, and immunoblot analysis was performed using HRP-conjugated anti-V5 as described previously (Hiesberger, 2005). mIMCD3/FC and mIMCD3/EGFP cell lines with inducible expression of fibrocystin and EGFP, respectively, were produced by transfecting mIMCD-3 cells with 1.5 μg pSwitch and either 1.5 μg pGeneFC or 1.5 μg pGeneEGFP. Stable transfectants were isolated after 14 days of growth in media containing hygromycin (350 μg/ml) and zeocin (300 μg/ml). To test for inducible expression, cells derived from individual clones were treated with mifepristone (10 nM) for 48 h or left untreated, and proteins were analyzed by immunoblotting using HRP-conjugated anti-FLAG. HEK-293 cells stably transfected with the muscarinic acetylcholine receptor M3 were a generous gift from Trevor Shuttleworth (University of Rochester Medical center) (Yang, 1995).
To further investigate the proteolytic cleavage of fibrocystin, mIMCD3/FC cells were generated, in which the expression of recombinant human fibrocystin can be induced by treatment with mifepristone.
FIG. 4 A is an image of a gel illustrating mIMCD3/FC cells were grown for 4 days and incubated with 0.1 μM thapsigargin (lane 2), 5 mM caffeine (lane 3), 75 μM dantrolene (lane 5), 200 μM ruthenium red (lane 7), or no additions (lanes 1, 4 and 6). After 2 hours, media were replaced with media lacking serum but containing the same supplements, and, in addition, 10 nM mifeprisone. Cell lysates were prepared after 24 hours and analyzed by immunoblotting using anti-V5 antibody. FIG. 4B is a graph of mIMCD-3 cells were transfected with 0.2 μg pG5-luc and either 0.2 μg pFC-GV or 0.2 μg pLDLR-GV. After 24 hours, cells were incubated in serum-free media in the presence or absence of 75 μM dantrolene. Relative luciferase activity was determined after 48 h. Data presented are mean ±SE of three separate transfections. The fibrocystin/Gal4-VP16 fusion protein is shown schematically below. […] Cells were lysed after 16 h, and extracts were analyzed by immunoblotting using anti-V5 antibody. […] Luciferase activity was measured after 12 hours. […] Cells were lysed after 16 hours, and extracts were analyzed by immunoblotting using anti-V5 antibody. […]

[2] = test system: fibrocystin cleavage in HEK-293 cells; assay: Immunoblot (anti-V5) of fibrocystin proteolysis in HEK-293 cells transfected with pFC-V5; assay type: cell-based, human
Procedure: (§1) FIG. 4 A is an image of a gel illustrating mIMCD3/FC cells were grown for 4 days and incubated with 0.1 μM thapsigargin (lane 2), 5 mM caffeine (lane 3), 75 μM dantrolene (lane 5), 200 μM ruthenium red (lane 7), or no additions (lanes 1, 4 and 6). After 2 hours, media were replaced with media lacking serum but containing the same supplements, and, in addition, 10 nM mifeprisone. Cell lysates were prepared after 24 hours and analyzed by immunoblotting using anti-V5 antibody. FIG. 4B is a graph of mIMCD-3 cells were transfected with 0.2 μg pG5-luc and either 0.2 μg pFC-GV or 0.2 μg pLDLR-GV. After 24 hours, cells were incubated in serum-free media in the presence or absence of 75 μM dantrolene. Relative luciferase activity was determined after 48 h. Data presented are mean ±SE of three separate transfections. The fibrocystin/Gal4-VP16 fusion protein is shown schematically below. Shaded box indicates the transmembrane segment; filled boxes indicate the N-terminal signal sequence and the C-terminal Gal4-VP16 fusion protein. FIG. 4C is an image of a gel illustrating HEK-293 cells transfected with 6 μg pFC-V5, and 8 hours later incubated in serum-free media containing 1-8 mM caffeine, 0.5 μM calphostin, or no additions. Cells were lysed after 16 h, and extracts were analyzed by immunoblotting using anti-V5 antibody. FIG. 4D is a graph of HEK-293 cells transfected with 0.2 μg pFC-GV and 0.2 μg pG5-luc. After 24 hours, cells were incubated in serum-free media containing 5 mM caffeine or no additions. Luciferase activity was measured after 12 hours. Data presented are mean ±SE of three separate transfections. FIG. 4E is an image of a gel illustrating HEK-293 cells stably expressing the m3 muscarinic receptor (lanes 1-4) and untransfected HEK-293 cells (lanes 5-8) were transfected with 6 μg pFC-V5. […] Cells were lysed after 16 hours, and extracts were analyzed by immunoblotting using anti-V5 antibody.
FIG. 5A is an image of a gel that illustrates HEK-293 cells were transfected with 6 μg pFC-V5. […] Fourteen hours later, cellular proteins were extracted and analyzed by immunoblotting using anti-V5 antibody. FIG. 5B is an image of a gel mIMCD3/FC cells were grown for 4 days, and expression of fibrocystin was induced by addition of 10 nM mifepristone. After 24 hours, media were supplemented with 0.1, 0.5, or 1 μM calphostin C. Thirty hours later, cells were harvested, and proteins were analyzed by immunoblotting using anti-V5 antibody. FIG. 5C is an image of a gel illustrating HEK-293 cells were transfected with 3 μg pFC-V5 and either 3 μg of the empty vector pEF-neo (lanes 1 and 3) or 3 μg pEF-PKCαA/E (lanes 2 and 4). After 12 hours media were changed to media containing 10% FCS (lanes 1 and 2) or 0.2% BSA (lanes 3 and 4). Forty-eight hours later, cells were harvested, and proteins were subjected to immunoblotting using anti-V5 antibody. FIG. 5D is a plot illustrating HEK-293 cells transfected with 0.2 μg pG5-luc and 0.2 μg pFC-GV, pLDLR-GV and/or pEF-PKCαA/E. After 16 hours, media were changed to serum-free media containing 100 nM PMA or 500 μM Br-cAMP. Twenty-four hours later, cells were harvested, and relative luciferase activities were determined. Data are the mean ±SE of three independent transfections.

[3] = test system: fibrocystin cleavage in HEK-293(m3) cells
Procedure: FIG. 4 A is an image of a gel illustrating mIMCD3/FC cells were grown for 4 days and incubated with 0.1 μM thapsigargin (lane 2), 5 mM caffeine (lane 3), 75 μM dantrolene (lane 5), 200 μM ruthenium red (lane 7), or no additions (lanes 1, 4 and 6). After 2 hours, media were replaced with media lacking serum but containing the same supplements, and, in addition, 10 nM mifeprisone. Cell lysates were prepared after 24 hours and analyzed by immunoblotting using anti-V5 antibody. FIG. 4B is a graph of mIMCD-3 cells were transfected with 0.2 μg pG5-luc and either 0.2 μg pFC-GV or 0.2 μg pLDLR-GV. After 24 hours, cells were incubated in serum-free media in the presence or absence of 75 μM dantrolene. Relative luciferase activity was determined after 48 h. Data presented are mean ±SE of three separate transfections. The fibrocystin/Gal4-VP16 fusion protein is shown schematically below. Shaded box indicates the transmembrane segment; filled boxes indicate the N-terminal signal sequence and the C-terminal Gal4-VP16 fusion protein. […] Cells were lysed after 16 h, and extracts were analyzed by immunoblotting using anti-V5 antibody. […] Luciferase activity was measured after 12 hours. […] Cells were lysed after 16 hours, and extracts were analyzed by immunoblotting using anti-V5 antibody.

[4] = test system: fibrocystin cleavage in HEK-293 cells; assay: Luciferase reporter assay of fibrocystin cleavage (pFC-GV / pG5-luc) in HEK-293 cells; assay type: cell-based, human; details: 5 mM caffeine versus vehicle, HEK-293, 12 hours, FIG. 4D
Procedure: Reporter Gene Assays—mIMCD-3 cells, HEK-293 cells, or HeLa cells were plated in 6-well dishes (3×10^5 cells/well) and cotransfected with 0.05 μg phRL-TK(Int−) encoding Renilla luciferase (Promega, Madison, Wis.), 0.1 μg Photinus luciferase reporter plasmids, and 0.01-0.3 μg effector plasmids. Luciferase assays were performed as described previously (Hiesberger, 2004). Relative luciferase activity was calculated as the ratio of Photinus and Renilla luciferase.
as §1
To quantitatively measure fibrocystin cleavage, a luciferase assay was developed that was similar to the ones employed to quantify the proteolytic cleavage of amyloid precursor protein (APP) and low density lipoprotein receptor related protein-1 (LRP1) (Cao, 2001; May, 2003). A plasmid (FC-GV) encoding the synthetic transcription factor Gal4-VP16 fused to the C-terminus of fibrocystin was generated. Proteolytic cleavage of the fibrocystin fusion protein releases Gal4-VP16, which translocates to the nucleus and activates a Gal4-responsive luciferase reporter gene (pG5-luc). Therefore, luciferase expression correlates with fibrocystin cleavage.
To quantify fibrocystin proteolysis in response to intracellular Ca^2+ release, the luciferase reporter assay was employed. HEK-293 cells were cotransfected with the plasmids pFC-GV and pG5-luc and incubated with either 5 mM caffeine or vehicle (as a control).
FIG. 5A is an image of a gel that illustrates HEK-293 cells were transfected with 6 μg pFC-V5.

Cn1c(=O)c2c(ncn2C)n(C)c1=O [caffeine]
generation of FCA [1]: prevented | fibrocystin proteolysis ([2]; 5 mM caffeine, untransfected HEK-293 cells, 16 hours, FIG. 4E): triggered fibrocystin proteolysis | proteolysis of fibrocystin ([2]; 1-8 mM caffeine, serum-free media, HEK-293, lysed after 16 h, FIG. 4C): induced dose-dependent proteolysis | fibrocystin proteolysis [3]: triggered fibrocystin proteolysis | increase of luciferase activity [4]: 10 fold
